# Data reported in PMC2882596 (Journal of the American Chemical Society, 2010).
# Assays:
# [1] = tested on: Bacillus subtilus 168; assay: MIC, serial dilution liquid culture, overnight in 96-well plates; format: cell-based, Bacillus subtilis; settings: wild type scaffold variants, equivalent potency
# [2] = tested on: Staph aureus strains; assay: Antibiotic potency of wild type thiocillin variants; format: cell-based, Staphylococcus aureus; settings: wild type scaffold variants, equivalent potency
Substance,antibiotic potency against B subtilis [1],antibiotic potency against Staph aureus strains [2]
Micrococcin P1,submicromolar,submicromolar
Micrococcin P2,submicromolar,submicromolar
Thiocillin I,submicromolar,submicromolar
YM-266183,submicromolar,submicromolar
